Experimental data: US20220281866A1, “5,8-DISUBSTITUTED-[1,2,4]TRIAZOLO[1,5-A]PYRIDINYL AND 5,8-DISUBSTITUTED-IMIDAZO[1,2-A]PYRIDINE DERIVATIVES USEFUL AS INHIBITORS OF ENTEROPEPTIDASE” (Janssen Pharmaceutica NV, priority 2019, published 2022)

Experiments:
[1] = target: T1, Recombinant full-length human EP (Enteropeptidase) (Homo sapiens, UniProt P98073); assay: In vitro inhibition potencies against Enteropeptidase (EP), fluorescent peptide GDDDDK-naphthylamine substrate; assay type: biochemical; conditions: 300 μM substrate, 1.25 nM EP; for inhibition at 0.1 µM: compound 0.1 μM; for inhibition at 1 µM: compound 1 μM; for inhibition at 10 µM: compound 10 μM; for kinact/KI: 12-point dose-dependence, time-dependent inhibition, duplicate dilutions, read-out: kinact/KI^App
T1 construct: Recombinant full-length human EP (PeproTech, Cat #450-48C); purchased PeproTech 450-48C
Experimental: In vitro inhibition potencies against Enteropeptidase (EP) Recombinant full-length human EP (PeproTech, Cat #450-48C) was used in this biochemical assay, with a quenched fluorescent labeled peptide GDDDDK-naphthylamine (NA) (Sigma, Cat #G5261) as the substrate in a buffer of 50 mM Tris-HCl pH 7.4, 200 mM NaCl and 0.01% Triton X-100. The enzyme activity was measured by following the formation of the cleavage product […](NA) by monitoring the fluorescence intensity (FI) at excitation/emission wavelengths of 340/410 nm. The steady-state kinetic characterization studies yielded an average of KM to be 412±22 μM and the apparent turnover number kcat^app of 11.8±0.4 s^−1 (N=2).
Compound inhibition studies were carried out under the conditions of 300 μM substrate and 1.25 nM EP. Reaction progress curves were collected by reading the FI at 340/410 nm continuously for 1 hour at an interval of 1 minute.
To screen compounds of formula (I), inhibition was studied at 4 different compound concentrations of 10 μM, 1 μM, 0.1 μM and 0.01 μM. Initial velocity of the reaction was determined, and percent of inhibition was calculated by comparing to the reaction in the absence of compound.
Accurate measurements of the inhibition potencies of selected compounds were studied in a 12-point dose-dependence fashion. […] Compound potency was measured by determining the inactivation rate constant (kobs) following the reaction change from the initial velocity vi to the steady-state velocity vs at various compound concentrations. The inactivation rate constants (kobs), were derived by fitting the reaction progress curves to eq. 1.
where YT is the detection signal of the reaction at time t, vi and vs are the initial and the steady-state velocities of the reaction, t is the reaction time. Y0 is the background signal (when t=0).
Compound binding mechanism was shown by plotting kobs˜[compound]. Hyperbolic fitting to eq. 2
conforms to a two-step binding mechanism as shown in Scheme BIO-1.
The plateau of the curve is the forward step rate constant of the isomerization step k3, KI^app is the inhibitor concentration that leads to half-maximal rate of inhibition of enzyme under the assay conditions. Compound inhibition potency was reported by the value of k3/KI^app.
A linear dependence of eq.3
indicates a one-step binding mechanism as shown in Scheme BIO-2
Slope of the linear fit gives the second-order rate constant of the compound binding k1, which is used to represent the compound inhibition potency.
(§1) Representative compounds of the present invention were tested according to the procedures as described in Biological Example 1 and Biological Example 2 above, with results as listed in Table 2 and Table 3, below. Results are reported as the %-inhibition (% Inh) or Kinact/KI value. Variability for the functional assay was typically within 20%. For the column headed Kinact/KI the listed measurement is the result of duplicate dilutions.

[2] = target: T2, Bovine trypsin (Bos taurus, UniProt P00760); assay: Biochemical Assay of Trypsin (T), H-D-CHA-AR-AMC substrate; conditions: 15 μM substrate, 0.025 nM Trypsin; for inhibition at 0.1 µM: compound 0.1 μM; for inhibition at 1 µM: compound 1 μM; for inhibition at 10 µM: compound 10 μM; for kinact/KI: 12-point dose-dependence, time-dependent inhibition, duplicate dilutions, read-out: Kinact/KI^App
T2 construct: purchased Sigma-Aldrich T1426
T2 sequence (P00760 24-246): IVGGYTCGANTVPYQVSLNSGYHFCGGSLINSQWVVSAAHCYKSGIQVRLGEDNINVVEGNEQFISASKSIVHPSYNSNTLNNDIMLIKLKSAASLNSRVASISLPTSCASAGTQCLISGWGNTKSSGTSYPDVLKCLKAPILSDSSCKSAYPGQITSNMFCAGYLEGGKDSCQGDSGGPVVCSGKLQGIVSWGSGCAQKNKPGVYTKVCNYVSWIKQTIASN
Experimental: Bovine trypsin was purchased from Sigma-Aldrich (Cat No. T1426), and 7-amino-4-methylcoumarin (AMC) conjugated peptide H-D-cyclohexylalanine (D-CHA)-AR-AMC was used as the substrate in the assay. The protease activity of trypsin was followed by measuring AMC production by the emission fluorescence intensity of AMC at 460 nm with the excitation at 375 nm, in the same assay buffer as used in the EP assay. The enzyme kinetic characterization studies yielded an average of KM to be 3.9±0.5 μM and the apparent turnover number kcat^app of 33.8±0.4 s^−1 (N=2).
Studies of compound inhibition against T were carried out under the conditions of 15 μM substrate and 0.025 nM Trypsin. Reaction progress curves were collected by reading the FI at 375/460 nm continuously for 1 hour at an interval of 1 minute. Similar to the procedure for Enteropeptidase described above, compounds of formula (I) were screened against Trypsin at 4 different concentrations to obtain the percent of inhibition at 10 μM, 1 μM, 0.1 μM and 0.01 μM, and accurate potencies of selected compounds against Trypsin were derived from detailed 12-point dose-dependence studies for time-dependent inhibitors.
as §1

T1 sequence (P98073 whole entry): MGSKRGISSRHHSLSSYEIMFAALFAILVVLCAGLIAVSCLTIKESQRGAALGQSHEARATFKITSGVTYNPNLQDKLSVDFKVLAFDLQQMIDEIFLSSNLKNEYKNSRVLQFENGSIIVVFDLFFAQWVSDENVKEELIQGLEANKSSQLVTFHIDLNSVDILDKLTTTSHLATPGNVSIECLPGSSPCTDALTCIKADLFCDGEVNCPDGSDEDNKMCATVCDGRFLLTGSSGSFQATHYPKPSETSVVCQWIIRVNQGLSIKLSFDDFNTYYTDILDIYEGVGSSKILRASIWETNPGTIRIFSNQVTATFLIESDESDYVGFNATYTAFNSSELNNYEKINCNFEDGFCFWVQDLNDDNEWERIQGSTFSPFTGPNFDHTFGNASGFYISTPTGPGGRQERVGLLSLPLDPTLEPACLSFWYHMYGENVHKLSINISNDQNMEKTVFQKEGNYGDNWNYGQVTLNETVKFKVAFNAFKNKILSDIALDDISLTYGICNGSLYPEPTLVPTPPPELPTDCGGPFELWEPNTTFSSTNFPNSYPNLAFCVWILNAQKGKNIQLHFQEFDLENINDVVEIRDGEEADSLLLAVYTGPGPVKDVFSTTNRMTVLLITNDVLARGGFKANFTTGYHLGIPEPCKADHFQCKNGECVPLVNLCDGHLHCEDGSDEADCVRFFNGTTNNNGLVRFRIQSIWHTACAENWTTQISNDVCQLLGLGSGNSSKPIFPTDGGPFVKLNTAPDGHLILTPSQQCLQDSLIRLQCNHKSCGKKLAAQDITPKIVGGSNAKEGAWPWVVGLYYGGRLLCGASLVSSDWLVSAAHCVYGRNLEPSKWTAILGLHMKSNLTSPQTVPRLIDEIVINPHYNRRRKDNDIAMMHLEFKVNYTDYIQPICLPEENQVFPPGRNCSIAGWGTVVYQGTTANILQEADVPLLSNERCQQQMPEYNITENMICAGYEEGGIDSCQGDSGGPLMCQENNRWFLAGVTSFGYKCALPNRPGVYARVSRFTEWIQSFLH

SMILES	inhibition at 0.1 µM [1]	inhibition at 1 µM [1]	inhibition at 10 µM [1]	inhibition at 0.1 µM [2]	inhibition at 1 µM [2]	inhibition at 10 µM [2]	kinact/KI [1]	kinact/KI [2]
N=C(N)Nc1ccc(C(=O)Oc2ccc(CC(=O)NCC(=O)O)n3ncnc23)cc1 [Compound 4, 2-(2-(8-(4-guanidinobenzoyloxy)-[1,2,4]triazolo[1,5-a]pyridin-5-yl)acetamido)acetic acid]	48.1%	101%	100%	99.7%	100%	100%		
N=C(N)Nc1ccc(C(=O)Oc2ccc(CC(=O)O)n3ccnc23)cc1 [Compound 9, 2-(8-(4-guanidinobenzoyloxy)imidazo[1,2-a]pyridin-5-yl)acetic acid]	101%	100%	100%	96.3%	101%	101%	210000 M⁻¹ s⁻¹	111000 M⁻¹ s⁻¹
N=C(N)Nc1ccc(C(=O)Oc2ccc(CCC(=O)O)n3ncnc23)cc1 [Compound 3, 3-(8-(4-guanidinobenzoyloxy)-[1,2,4]triazolo[1,5-a]pyridin-5-yl)propanoic acid]	35%	101%	100%	99.8%	100%	100%		
N=C(N)Nc1ccc(C(=O)Oc2ccc(CC(=O)O)n3ncnc23)s1 [Compound 10, 2-(8-(5-guanidinothiophene-2-carbonyloxy)-[1,2,4]triazolo[1,5-a]pyridin-5-yl)acetic acid]	82%	100%	100%	93.8%	99.9%	99.8%		
N=C(N)Nc1ccc(C(=O)Oc2ccc(CC(=O)O)n3ncnc23)cc1 [Compound 1, 2-{8-[(4-carbamimidamidophenyl)carbonyloxy]-[1,2,4]triazolo[1,5-a]pyridin-5-yl}acetic acid]	97.8%	100%	100%	97.2%	100%	100%	130000 M⁻¹ s⁻¹	159000 M⁻¹ s⁻¹
N=C(N)Nc1ccc(C(=O)Oc2ccc(CC(=O)NC(CC(=O)O)C(=O)O)n3ncnc23)cc1 (stereo not shown) [Compound 5, 2-(2-(8-(4-guanidinobenzoyloxy)-[1,2,4]triazolo[1,5-a]pyridin-5-yl)acetamido)succinic acid]	48.3%	101%	100%	98.3%	100%	100%		
N=C(N)Nc1ccc(C(=O)Oc2ccc(CC(=O)O)n3ncnc23)c(F)c1 [Compound 21, 2-(8-(2-fluoro-4-guanidinobenzoyloxy)-[1,2,4]triazolo[1,5-a]pyridin-5-yl)acetic acid]	99.4%	100%	100%	97.1%	99.7%	100%		
N=C1NCCN1c1ccc(C(=O)Oc2ccc(CC(=O)O)n3ncnc23)cc1 [Compound 32, 2-(8-(4-(2-iminoimidazolidin-1-yl)benzoyloxy)-[1,2,4]triazolo[1,5-a]pyridin-5-yl)acetic acid]	10.5%	57.9%	93.2%	10.9%	58.3%	93%		
C#CCOCCOCC#Cc1cc(NC(=N)N)ccc1C(=O)Oc1ccc(CC(=O)O)n2ncnc12 [Compound 42, 2-(8-((4-guanidino-2-(3-(2-(prop-2-yn-1-yloxy)ethoxy)prop-1-yn-1-yl)benzoyl)oxy)-[1,2,4]triazolo[1,5-a]pyridin-5-yl)acetic acid]	62.3%	98.5%	99.8%	52.9%	99.6%	100%	52800 M⁻¹ s⁻¹	59400 M⁻¹ s⁻¹
N#CNC(=N)c1ccc(C(=O)Oc2ccc(CC(=O)O)n3ncnc23)cc1 [Compound 38, 2-(8-(4-(N-cyanocarbamimidoyl)benzoyloxy)-[1,2,4]triazolo[1,5-a]pyridin-5-yl)acetic acid]	-1.6%	1.9%	13.6%	-2.1%	2.5%	35.8%		
N=C(N)Nc1ccc(C(=O)Oc2cc(CCC(=O)O)cn3ncnc23)cc1 [Compound 25, 3-(8-(4-guanidinobenzoyloxy)-[1,2,4]triazolo[1,5-a]pyridin-6-yl)propanoic acid]	45.2%	102%	101%	99.2%	100%	100%		
N=C(N)Nc1ccc(C(=O)Oc2ccc(CC(=O)O)n3ncnc23)cc1F [Compound 14, 2-(8-(3-fluoro-4-guanidinobenzoyloxy)-[1,2,4]triazolo[1,5-a]pyridin-5-yl)acetic acid]	96.8%	100%	100%	87.6%	100%	100%	72800 M⁻¹ s⁻¹	69700 M⁻¹ s⁻¹
N=C(N)Nc1ccc(C(=O)Oc2ccc(Cc3nn[nH]n3)n3ncnc23)cc1 [Compound 11, 5-((2H-tetrazol-5-yl)methyl)-[1,2,4]triazolo[1,5-a]pyridin-8-yl 4-guanidinobenzoate]	89.7%	101%	100%	99.3%	100%	100%		
CS(=O)(=O)NC(=O)Cc1ccc(OC(=O)c2ccc(NC(=N)N)cc2)c2ncnn12 [Compound 8, 5-(2-(methylsulfonamido)-2-oxoethyl)-[1,2,4]triazolo[1,5-a]pyridin-8-yl4-guanidinobenzoate]	101%	100%	100%	98.8%	100%	99.9%	181000 M⁻¹ s⁻¹	163000 M⁻¹ s⁻¹
N=C(N)Nc1ccc(C(=O)Oc2ccc(CC(=O)O)n3ncnc23)c(C(F)(F)F)c1 [Compound 20, 2-(8-(4-guanidino-2-(trifluoromethyl)benzoyloxy)-[1,2,4]triazolo [1,5-a]pyridin-5-yl)acetic acid]	4.1%	38.5%	98.9%	2.3%	16.6%	88.7%		
